# Tested on: Tau0N4R-TM-tGFP U2OS cells
# Test: Tau phosphorylation
# Conditions: 25–100 μM, 6 hrs
smiles,measurement,value
"c1ccc(CNc2nc(Nc3cc(C4CC4)[nH]n3)c3sccc3n2)cc1 [Compound 4, N2-benzyl-N4-(5-cyclopropyl-1H-pyrazol-3-yl)thieno[3,2-d]pyrimidine-2,4-diamine]",cytotoxicity in bundle formation assay,cytotoxicity effects started to appear
